Where a SMILES comes first, the peptide text is derived from it.
Columns and labels:
L. crispatus and E. coli = assay: Therapeutic Effect Protocol: L. crispatus / E. coli co-culture, ratio after 36 hours; assay type: cell-based, Lactobacillus crispatus; E. coli; conditions: for Therapeutic Efficacy Results (Lactobacillus/E. coli) 0.10%: nitrogen compound 0.10 wt/vol % with 1.0 wt/vol % α methyl-D glucoside (10:1); for Therapeutic Efficacy Results (Lactobacillus/E. coli) 0.10% / Therapeutic Efficacy Results (Lactobacillus/E. coli) 0.50% / Therapeutic Efficacy Results (Lactobacillus/E. coli) 1.00%: 36 hours anaerobic co-culture, 37° C.; for Therapeutic Efficacy Results (Lactobacillus/E. coli) 0.50%: nitrogen compound 0.50 wt/vol % with 1.0 wt/vol % α methyl-D glucoside (2:1); for Therapeutic Efficacy Results (Lactobacillus/E. coli) 1.00%: nitrogen compound 1.00 wt/vol % with 1.0 wt/vol % α methyl-D glucoside (1:1); for Therapeutic effect when ratio α methyl-D glucoside : nitrogen compound is at least about 2:1, but not at 1:1: ratio at least about 2:1, not 1:1; for Therapeutic effect at ratio 2:1 and 10:1, but not at 1:1: ratios 2:1 and 10:1, not 1:1
Procedure, shortened: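 L. crispatus and E. coli were mixed 1,000:1 (10^5-10^6 and 100-1,000 CFU per 5 mL tube) in LAPT-g medium at pH 6.5, containing 1% α-methyl-D-glucoside plus nitrogen compound at 0.1-1% w/v, in duplicate. After 36 h anaerobic incubation at 37 °C, each species was counted by selective plating (MRS anaerobic, TSA aerobic), and the L. crispatus:E. coli ratio and final pH were recorded.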

[1] = Initial pH screening of the composition; assay type: physicochemical; conditions: for I pH (initial pH), 0.10%: nitrogen compound 0.10 wt/vol % with 1.0 wt/vol % α methyl-D glucoside in medium; for I pH (initial pH), 0.50%: nitrogen compound 0.50 wt/vol % with 1.0 wt/vol % α methyl-D glucoside in medium; for I pH (initial pH), 1.00%: nitrogen compound 1.00 wt/vol % with 1.0 wt/vol % α methyl-D glucoside in medium
Procedure, shortened: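 Compounds were added to LAPT-g medium (pH adjusted to 6.5) at a final 0.1-1.0%. Solubility was judged visually by precipitate or turbidity, and insoluble compositions got no pH measurement. Initial pH was scored Low (<5.5), High (>6.5) or Pass (5.5-6.5), and only soluble Pass compositions went on to efficacy testing.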

C[C@@H](N)C(=O)O [D-Alanine]
Therapeutic Efficacy Results (Lactobacillus/E. coli) 0.10% (L. crispatus and E. coli): 1.10E+06 | Therapeutic Efficacy Results (Lactobacillus/E. coli) 0.50% (L. crispatus and E. coli): >1.30E+04 | Therapeutic Efficacy Results (Lactobacillus/E. coli) 1.00% (L. crispatus and E. coli): 60 | Therapeutic effect (ratio of Lactobacillus to E. coli greater than 2) at each concentration tested (L. crispatus and E. coli; with α methyl-D glucoside, nitrogen compound 1 wt/vol %, 0.5 wt/vol % and 0.1 wt/vol %): provided a therapeutic effect | Therapeutic effect when ratio α methyl-D glucoside : nitrogen compound is less than 2:1 (1:1) (L. crispatus and E. coli; with α methyl-D glucoside, ratio 1:1): provided a therapeutic effect | I pH (initial pH), 0.10% [1]: P (a Pass initial pH corresponds to the pH being at or between 5.5-6.5) | I pH (initial pH), 0.50% [1]: P (a Pass initial pH corresponds to the pH being at or between 5.5-6.5) | I pH (initial pH), 1.00% [1]: P (a Pass initial pH corresponds to the pH being at or between 5.5-6.5)

C[C@H](NC(=O)CN)C(=O)O [Glycyl-Alanine] (H-Gly-Ala-OH)
Therapeutic Efficacy Results (Lactobacillus/E. coli) 0.10% (L. crispatus and E. coli): 0.803 | Therapeutic Efficacy Results (Lactobacillus/E. coli) 0.50% (L. crispatus and E. coli): 220 | Therapeutic Efficacy Results (Lactobacillus/E. coli) 1.00% (L. crispatus and E. coli): 1.49 | Therapeutic effect when ratio α methyl-D glucoside : nitrogen compound is at least about 2:1, but not at 1:1 (L. crispatus and E. coli; with α methyl-D glucoside): provided a therapeutic effect | I pH (initial pH), 0.10% [1]: P (a Pass initial pH corresponds to the pH being at or between 5.5-6.5) | I pH (initial pH), 0.50% [1]: P (a Pass initial pH corresponds to the pH being at or between 5.5-6.5) | I pH (initial pH), 1.00% [1]: P (a Pass initial pH corresponds to the pH being at or between 5.5-6.5)

C[C@H](N)C(=O)N[C@@H](CC(=O)O)C(=O)O [Ala-Asp] (H-Ala-Asp-OH)
Therapeutic Efficacy Results (Lactobacillus/E. coli) 0.10% (L. crispatus and E. coli): >100 | Therapeutic effect when ratio α methyl-D glucoside : nitrogen compound is at least about 2:1, but not at 1:1 (L. crispatus and E. coli; with α methyl-D glucoside): provided a therapeutic effect | I pH (initial pH), 0.10% [1]: P (a Pass initial pH corresponds to the pH being at or between 5.5-6.5) | I pH (initial pH), 0.50% [1]: L (A Low initial pH corresponds to an initial pH being less than 5.5) | I pH (initial pH), 1.00% [1]: L (A Low initial pH corresponds to an initial pH being less than 5.5)

NCC(=O)N[C@@H](CCC(N)=O)C(=O)O.O [Gly-Gln] (H-Gly-Gln-OH)
Therapeutic Efficacy Results (Lactobacillus/E. coli) 0.10% (L. crispatus and E. coli): 8.57 | Therapeutic Efficacy Results (Lactobacillus/E. coli) 0.50% (L. crispatus and E. coli): >189 | Therapeutic Efficacy Results (Lactobacillus/E. coli) 1.00% (L. crispatus and E. coli): 0.38 | Therapeutic effect when ratio α methyl-D glucoside : nitrogen compound is at least about 2:1, but not at 1:1 (L. crispatus and E. coli; with α methyl-D glucoside): provided a therapeutic effect | Therapeutic effect at ratio 2:1 and 10:1, but not at 1:1 (L. crispatus and E. coli; with α methyl-D glucoside): provided a therapeutic effect | I pH (initial pH), 0.10% [1]: P (a Pass initial pH corresponds to the pH being at or between 5.5-6.5) | I pH (initial pH), 0.50% [1]: P (a Pass initial pH corresponds to the pH being at or between 5.5-6.5) | I pH (initial pH), 1.00% [1]: P (a Pass initial pH corresponds to the pH being at or between 5.5-6.5)

NC(=O)CC[C@H](N)C(=O)O [L-Glutamine]
Therapeutic Efficacy Results (Lactobacillus/E. coli) 0.10% (L. crispatus and E. coli): >161 | Therapeutic Efficacy Results (Lactobacillus/E. coli) 0.50% (L. crispatus and E. coli): 1.28 | Therapeutic Efficacy Results (Lactobacillus/E. coli) 1.00% (L. crispatus and E. coli): 0.53 | Therapeutic effect when ratio α methyl-D glucoside : nitrogen compound is at least about 2:1, but not at 1:1 (L. crispatus and E. coli; with α methyl-D glucoside): provided a therapeutic effect | I pH (initial pH), 0.10% [1]: P (a Pass initial pH corresponds to the pH being at or between 5.5-6.5) | I pH (initial pH), 0.50% [1]: P (a Pass initial pH corresponds to the pH being at or between 5.5-6.5) | I pH (initial pH), 1.00% [1]: P (a Pass initial pH corresponds to the pH being at or between 5.5-6.5)

CSCC[C@H](NC(=O)CN)C(=O)O [Gly-Met]
Therapeutic Efficacy Results (Lactobacillus/E. coli) 0.10% (L. crispatus and E. coli): 238 | Therapeutic Efficacy Results (Lactobacillus/E. coli) 0.50% (L. crispatus and E. coli): >2343.75 | Therapeutic Efficacy Results (Lactobacillus/E. coli) 1.00% (L. crispatus and E. coli): 0.81 | Therapeutic effect when ratio α methyl-D glucoside : nitrogen compound is at least about 2:1, but not at 1:1 (L. crispatus and E. coli; with α methyl-D glucoside): provided a therapeutic effect | Therapeutic effect at ratio 2:1 and 10:1, but not at 1:1 (L. crispatus and E. coli; with α methyl-D glucoside): provided a therapeutic effect | I pH (initial pH), 0.10% [1]: P (a Pass initial pH corresponds to the pH being at or between 5.5-6.5) | I pH (initial pH), 0.50% [1]: P (a Pass initial pH corresponds to the pH being at or between 5.5-6.5) | I pH (initial pH), 1.00% [1]: P (a Pass initial pH corresponds to the pH being at or between 5.5-6.5)

N[C@@H](CCO)C(=O)O [L-Homoserine]
Therapeutic Efficacy Results (Lactobacillus/E. coli) 0.10% (L. crispatus and E. coli): >750 | Therapeutic Efficacy Results (Lactobacillus/E. coli) 0.50% (L. crispatus and E. coli): 0.66 | Therapeutic Efficacy Results (Lactobacillus/E. coli) 1.00% (L. crispatus and E. coli): 0.33 | Therapeutic effect when ratio α methyl-D glucoside : nitrogen compound is at least about 2:1, but not at 1:1 (L. crispatus and E. coli; with α methyl-D glucoside): provided a therapeutic effect | I pH (initial pH), 0.10% [1]: P (a Pass initial pH corresponds to the pH being at or between 5.5-6.5) | I pH (initial pH), 0.50% [1]: P (a Pass initial pH corresponds to the pH being at or between 5.5-6.5) | I pH (initial pH), 1.00% [1]: P (a Pass initial pH corresponds to the pH being at or between 5.5-6.5)

C[C@@H](O)[C@H](N)C(=O)O [L-Threonine]
Therapeutic Efficacy Results (Lactobacillus/E. coli) 0.10% (L. crispatus and E. coli): 0.74 | Therapeutic Efficacy Results (Lactobacillus/E. coli) 0.50% (L. crispatus and E. coli): 1.13 | Therapeutic Efficacy Results (Lactobacillus/E. coli) 1.00% (L. crispatus and E. coli): 0.36 | I pH (initial pH), 0.10% [1]: P (a Pass initial pH corresponds to the pH being at or between 5.5-6.5) | I pH (initial pH), 0.50% [1]: P (a Pass initial pH corresponds to the pH being at or between 5.5-6.5) | I pH (initial pH), 1.00% [1]: P (a Pass initial pH corresponds to the pH being at or between 5.5-6.5)

NCCCC[C@H](N)C(=O)O [L-Lysine]
Therapeutic Efficacy Results (Lactobacillus/E. coli) 0.10% (L. crispatus and E. coli): >141 | Therapeutic Efficacy Results (Lactobacillus/E. coli) 0.50% (L. crispatus and E. coli): 1.93 | Therapeutic Efficacy Results (Lactobacillus/E. coli) 1.00% (L. crispatus and E. coli): 0.42 | Therapeutic effect when ratio α methyl-D glucoside : nitrogen compound is at least about 2:1, but not at 1:1 (L. crispatus and E. coli; with α methyl-D glucoside): provided a therapeutic effect | I pH (initial pH), 0.10% [1]: P (a Pass initial pH corresponds to the pH being at or between 5.5-6.5) | I pH (initial pH), 0.50% [1]: P (a Pass initial pH corresponds to the pH being at or between 5.5-6.5) | I pH (initial pH), 1.00% [1]: P (a Pass initial pH corresponds to the pH being at or between 5.5-6.5)

C[C@H](N)C(=O)N[C@@H](Cc1cnc[nH]1)C(=O)O [Ala-His] (H-Ala-His-OH)
Therapeutic Efficacy Results (Lactobacillus/E. coli) 0.10% (L. crispatus and E. coli): >133 | Therapeutic Efficacy Results (Lactobacillus/E. coli) 0.50% (L. crispatus and E. coli): 6.59E+02 | Therapeutic effect when ratio α methyl-D glucoside : nitrogen compound is at least about 2:1, but not at 1:1 (L. crispatus and E. coli; with α methyl-D glucoside): provided a therapeutic effect | Therapeutic effect at ratio 2:1 and 10:1, but not at 1:1 (L. crispatus and E. coli; with α methyl-D glucoside): provided a therapeutic effect | I pH (initial pH), 0.10% [1]: P (a Pass initial pH corresponds to the pH being at or between 5.5-6.5) | I pH (initial pH), 0.50% [1]: P (a Pass initial pH corresponds to the pH being at or between 5.5-6.5) | I pH (initial pH), 1.00% [1]: H (a High initial pH corresponds to an initial pH being greater than 6.5)

C[C@H](N)C(=O)O [L-Alanine]
Therapeutic Efficacy Results (Lactobacillus/E. coli) 0.10% (L. crispatus and E. coli): 1.5 | Therapeutic Efficacy Results (Lactobacillus/E. coli) 0.50% (L. crispatus and E. coli): 1.52 | Therapeutic Efficacy Results (Lactobacillus/E. coli) 1.00% (L. crispatus and E. coli): 1.3 | I pH (initial pH), 0.10% [1]: P (a Pass initial pH corresponds to the pH being at or between 5.5-6.5) | I pH (initial pH), 0.50% [1]: P (a Pass initial pH corresponds to the pH being at or between 5.5-6.5) | I pH (initial pH), 1.00% [1]: P (a Pass initial pH corresponds to the pH being at or between 5.5-6.5)

Source: patent publication US12029748B2, “Synergistic composition for maintenance of healthy balance of microflora” (KIMBERLY-CLARK WORLDWIDE, INC., priority 2017, dated 2024)
